How the values were obtained:
lymphocytes (PBMC) = assay: Toxicity on lymphocytes (PBMC); format: cell-based; settings: doses below 400 μM; data not shown
[1] = test system: Wi-38 (normal lung fibroblasts); assay: Multiparametric analysis of cellular effects on Wi-38 cell line; format: cell-based; settings: Wi-38, compared to HT-29, BxPC3, 48 h and 72 h treatments
Procedure: FIG. 4: Compound 1 induces low toxicity on normal fibroblast Wi-38 • A) Expression pattern of ANT isoforms in HT-29, BxPC3 and Wi-38 (normal lung fibroblasts) cell lines after RT-PCR reaction on total RNA • (B) Multiparametric analysis (mitochondrial transmembrane potential, plasma membrane permeabilization, phosphatidylserine exposure) of cellular effects of the ANT-ligand on Wi-38 cell line after 48 h and 72 h treatments.
MTT assay was used to evaluate the viability of a large range of human cell lines in presence of small molecules. Dose-response experiments allow us to determine a lethal-dose 50 (LD50; dose killing 50% of the cellular population) for each compound on a particular cell type after a 48-hour incubation. This viability assay is used as a first screening assay to identify cell-permeant molecules able to induce cell death (cytotoxic) or growth delay (cytostatic) among the 956 molecules of the ANT-ligands library. […] Indeed, the characterisation of cell death consists in a multiparametric analysis of treated-cells by flow cytometry (FacsCalibur, Becton Dickinson) where can be measured (1) the loss of mitochondrial trans-membrane potential (L′m; DIOC6 labelling), (2) the plasma membrane permeabilization (Propidium Iodide labeling) and (3) the phosphatidylserines exposure (Annexin-V-fitc labelling).

[2] = test system: S. cerevisiae WT (W303) and JL1-3 (ΔANT 1, 2 & 3) strains; assay: Clonogenic assays on S. cerevisiae strains deficient for ANT isoforms; format: cell-based; settings: ΔANT 1, 2 & 3 vs WT; viability at 48 h after 2 h incubation
Procedure: The importance of ANT isoforms in cytotoxic effects of the selected ANT-ligands has been evaluated using S. cerevisiae strains deficient for ANT isoforms (FIG. 5). Clonogenic assays on these strains are used to ensure that cytotoxic effects of the ANT-ligands are really due to the expression of ANTs in the cells.
FIG. 5: Target validation of compound 1 using ANT-deficient yeasts • (A) Quantitative estimation of yeasts viability at 48 h after 2 h incubation with compound 1 • (B) Illustration of WT (W303) and JL1-3 (LANT1, 2 and 3) yeast strains growth on plates at 48 h after 2 h incubation with compound 1.

[3] = test system: HT-29 and BxPC3 tumor cell lines; assay: Multiparametric analysis of cell death (flow cytometry) on tumor cell lines; format: cell-based, human; settings: for effect of caspase / cathepsin B inhibitors on apoptosis induced by the ANT-ligand: z-VAD-fmk, Q-VD-OPH, Z-FA-fmk, Bax/Bak deletion
Procedure: FIG. 2: The ANT-ligand is pro-apoptotic on HT-29 and BxPC3 tumor cell lines • (A) Chemical structure of compound 1 • (B) Multiparametric analysis (chromatin condensation, mitochondrial transmembrane potential (L′m) loss, plasma membrane permeabilization, phosphatidylserine exposure) of cellular effects of the ANT-ligand on BxPC3 cell line after 48 h treatment. • (C) Effects of compound 1 on ADP/ATP translocator activity of ANT measured on isolated mitochondria from mice liver or HT-29 tumor cell line (IC50 is given in μM based on ANT assays) and on viability of HT-29 and BxPC3 tumor cell lines (LD50 is given in μM based on MTT assays at 48 h).
MTT assay was used to evaluate the viability of a large range of human cell lines in presence of small molecules. Dose-response experiments allow us to determine a lethal-dose 50 (LD50; dose killing 50% of the cellular population) for each compound on a particular cell type after a 48-hour incubation. This viability assay is used as a first screening assay to identify cell-permeant molecules able to induce cell death (cytotoxic) or growth delay (cytostatic) among the 956 molecules of the ANT-ligands library. We have chosen to select molecules having an LD50 below 50 μM on HT-29 (colon adenocarcinoma) or BxPC3 (pancreatic adenocarcinoma) cell lines. These molecules come into the ANT activity screening assays and the efficient ANT-inhibitors (IC50 below 50 μM) are investigated for their mechanisms of cell death induction. Indeed, the characterisation of cell death consists in a multiparametric analysis of treated-cells by flow cytometry (FacsCalibur, Becton Dickinson) where can be measured (1) the loss of mitochondrial trans-membrane potential (L′m; DIOC6 labelling), (2) the plasma membrane permeabilization (Propidium Iodide labeling) and (3) the phosphatidylserines exposure (Annexin-V-fitc labelling).

For `O=C(O)CCCCn1c(SCc2ccccc2Cl)nc2ccsc2c1=O` [Compound 1], the “toxicity on lymphocytes (PBMC)” value (lymphocytes (PBMC)) was “no sign of toxicity”, the “toxicity on normal lung fibroblasts” value [1] was “low toxicity” and the “toxicity on normal lung fibroblasts” value ([1]; listed as compound 1) was “minor compared to tumor cells”. The “resistance of ANT-deficient yeast strain versus wild-type” value [2] was “more resistant to the compound 1 than the wild-type (WT) control strain”, the “apoptosis hallmarks (mitochondrial potential loss, phosphatidylserine exposure, plasma membrane permeabilization, chromatin condensation)” value ([3]; multiparametric analysis) was “induces classical hallmarks of apoptosis” and the mitochondrial trans-membrane potential ([3]; tumor cells) was “induces dissipation of the mitochondrial trans-membrane potential”. For the same compound, the “effect of caspase / cathepsin B inhibitors on apoptosis induced by the ANT-ligand” value [3] was “inhibited by pan-caspase inhibitors (z-VAD-fmk, Q-VD-OPH) but not by the cathepsin B inhibitor (Z-FA-fmk)” and the “effect of caspase / cathepsin B inhibitors on apoptosis induced by the ANT-ligand” value ([3]; listed as compound 1) was “abolished by caspase inhibitors”.

From US9657031B2, “Ant-ligands molecules and biological applications” (MITOLOGICS, priority 2008, dated 2017)
